# Assay results reported in the supplement of paper PMC10307832.
# Assays:
# Test in all cases: relative viability (nuclei count vs DMSO), 5 days (fraction); higher = more cells survive
# [1] = compound: CCn1c(-c2nonc2N)nc2cnc(Oc3cccc(NC(=O)c4ccc(OCCN5CCOCC5)cc4)c3)cc21 + C[C@@H](Oc1cc(-c2cnn(C3CCNCC3)c2)cnc1N)c1c(Cl)ccc(F)c1Cl [Crizotinib] (partner 1 µM)
# How it was run: (§1)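 Values are medians from duplicate plates. Each reflects relative viability, defined as the nuclei count of treated wells over that of vehicle wells. Lung cancer cell lines in 1536-well plates were pin-tool dosed one day after seeding with one drug alone or with a fixed anchor-drug dose plus five library-drug doses (not always all listed) in √10 steps, then fixed, stained and imaged at 4× after 5 days.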
# [2] = compound: CCn1c(-c2nonc2N)nc2cnc(Oc3cccc(NC(=O)c4ccc(OCCN5CCOCC5)cc4)c3)cc21 + Cc1nc(Nc2ncc(C(=O)Nc3c(C)cccc3Cl)s2)cc(N2CCN(CCO)CC2)n1 [Dasatinib] (partner 0.075 µM)
# How it was run: as §1
# [3] = compound: CCC1=CN=CN=C1N2CCN(CC2)CC3=NC4=C(N3)C=C(C=C4)C(F)(F)F + CC(C)C[C@H](NC(=O)[C@H](Cc1ccccc1)NC(=O)c1cnccn1)B(O)O [Bortezomib] (partner 0.002 µM)
# How it was run: as §1
# [4] = compound: CCn1c(-c2nonc2N)nc2cnc(Oc3cccc(NC(=O)c4ccc(OCCN5CCOCC5)cc4)c3)cc21 + CC(C)C[C@H](NC(=O)[C@H](Cc1ccccc1)NC(=O)c1cnccn1)B(O)O [Bortezomib] (partner 0.002 µM)
# How it was run: as §1
Cell Line,relative viability ([1]; first compound 0.04 µM),relative viability ([1]; first compound 0.1265 µM),relative viability ([1]; first compound 0.4 µM),relative viability ([1]; first compound 1.265 µM),relative viability ([1]; first compound 4 µM),relative viability ([2]; first compound 0.04 µM),relative viability ([2]; first compound 0.1265 µM),relative viability ([2]; first compound 0.4 µM),relative viability ([2]; first compound 1.265 µM),relative viability ([2]; first compound 4 µM),relative viability ([3]; first compound 0.04 µM),relative viability ([3]; first compound 0.1265 µM),relative viability ([3]; first compound 0.4 µM),relative viability ([3]; first compound 1.265 µM),relative viability ([3]; first compound 4 µM),relative viability ([4]; first compound 0.04 µM),relative viability ([4]; first compound 0.1265 µM),relative viability ([4]; first compound 0.4 µM),relative viability ([4]; first compound 1.265 µM),relative viability ([4]; first compound 4 µM)
NCI-H358,0.561,0.661,0.522,0.467,0.281,0.162,0.195,0.169,0.219,0.141,–,–,–,–,–,–,–,–,–,–
RERF-LC-KJ,0.886,0.822,0.82,0.535,0.36,0.88,0.746,0.462,0.43,0.347,1.04,1.01,1.11,0.941,1.11,1.32,1.31,1.01,0.731,0.754
NCI-H1792,1.08,0.99,–,0.592,0.841,0.954,0.514,–,0.405,0.488,0.885,0.782,0.926,1.04,1,1.09,1,–,0.631,0.817
NCI-H647,1.28,0.865,0.813,0.511,0.389,0.145,0.0946,0.0784,0.122,0.0956,1.3,0.938,–,0.884,0.955,0.847,0.654,0.614,0.536,0.631
SK-LU-1,1.12,0.744,0.61,0.46,0.355,0.157,0.15,0.103,0.139,0.128,1.09,1.03,1.16,–,1.13,1.5,0.921,0.608,–,0.504
NCI-H441,1.02,0.659,0.606,0.479,0.431,0.635,0.683,–,0.685,0.549,0.523,0.366,0.301,0.356,0.383,0.484,0.895,0.458,0.42,0.374
COR-L 105,0.663,0.571,0.371,0.273,0.264,0.261,0.219,0.217,0.232,0.167,0.861,0.913,0.737,0.475,0.836,0.734,0.625,0.519,0.319,0.319
NCI-H1993,0.991,0.864,–,0.75,0.742,0.596,0.572,0.5,0.552,0.569,1.16,0.952,0.927,1.25,1.01,1.09,1.16,–,0.882,1.02
NCI-H1437,0.788,0.949,0.749,0.703,0.666,0.629,0.373,0.148,0.363,0.35,0.528,0.484,0.431,0.474,0.504,0.518,0.427,0.514,0.499,0.364
PC-14,0.874,0.884,0.87,0.683,0.7,0.221,0.173,0.174,0.158,0.115,0.938,0.815,0.856,0.848,0.935,1.04,0.857,0.905,0.776,0.729
NCI-H1944,1.15,1.11,–,1.07,1.12,0.192,0.154,0.138,0.157,0.139,–,–,–,–,–,–,–,–,–,–
EBC-1,0.227,0.207,0.175,0.17,0.136,–,–,–,–,–,0.557,0.528,0.6,0.458,0.486,0.771,0.566,0.537,0.458,0.342
SK-MES-1,1.12,0.883,0.804,0.742,0.645,0.429,0.256,0.224,0.244,0.172,–,–,–,–,–,–,–,–,–,–
NCI-H1299,0.961,0.878,0.768,0.71,0.473,–,–,–,–,–,1.06,0.998,1.01,0.983,1.01,1.06,0.975,0.929,0.825,0.734
A549,0.837,0.417,0.223,0.086,0.114,–,–,–,–,–,–,–,–,–,–,–,–,–,–,–
NCI-H1793,–,–,–,–,–,0.385,0.284,0.208,0.183,0.194,–,–,–,–,–,–,–,–,–,–
NCI-H1623,–,–,–,–,–,0.655,0.797,0.529,0.543,0.606,–,–,–,–,–,–,–,–,–,–
NCI-H1703,0.641,0.799,0.484,0.426,0.205,–,–,–,–,–,0.305,0.26,0.248,0.446,0.307,0.369,0.283,0.178,0.187,0.178
NCI-H2170,1.03,1.21,1.15,1.17,1.26,0.553,0.676,0.665,0.515,0.443,–,–,–,–,–,–,–,–,–,–
NCI-H1395,–,–,–,–,–,0.398,0.37,0.342,0.317,0.345,–,–,–,–,–,–,–,–,–,–
HCC-44,0.784,1.03,0.83,0.411,0.248,–,–,–,–,–,0.853,0.798,0.854,0.89,0.866,0.889,0.902,0.56,0.305,0.248
NCI-H522,–,–,–,–,–,0.735,0.797,0.656,0.614,0.667,–,–,–,–,–,–,–,–,–,–
Calu-6,0.864,0.698,0.519,0.346,0.373,–,–,–,–,–,0.969,0.924,0.871,0.884,0.829,1.03,0.922,0.771,0.5,0.469
LK-2,0.222,0.236,0.264,0.242,0.176,0.39,0.493,0.208,0.178,0.252,–,–,–,–,–,–,–,–,–,–
